Reference: paper PMC5503199 (Molecular microbiology, 2009)

Assays:
BetX with CbcWV = molecular target: T1, BetX with CbcWV (Pseudomonas aeruginosa, UniProt Q9HZ04); assay: Uptake kinetics, MKH13; conditions: MKH13, pNcbcWV + pTPA3236, SBP BetX, mean (SE), n = 4
T1 sequence (Q9HZ04 26-285): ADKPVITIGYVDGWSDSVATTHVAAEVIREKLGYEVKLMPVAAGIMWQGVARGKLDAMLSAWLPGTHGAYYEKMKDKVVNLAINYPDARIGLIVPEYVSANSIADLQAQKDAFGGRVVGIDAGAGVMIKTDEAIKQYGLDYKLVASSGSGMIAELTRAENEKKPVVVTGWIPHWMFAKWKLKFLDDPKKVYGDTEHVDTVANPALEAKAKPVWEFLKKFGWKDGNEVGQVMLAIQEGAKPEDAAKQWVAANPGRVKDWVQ
T1 sequence (Q9HTI7 1-279 partner): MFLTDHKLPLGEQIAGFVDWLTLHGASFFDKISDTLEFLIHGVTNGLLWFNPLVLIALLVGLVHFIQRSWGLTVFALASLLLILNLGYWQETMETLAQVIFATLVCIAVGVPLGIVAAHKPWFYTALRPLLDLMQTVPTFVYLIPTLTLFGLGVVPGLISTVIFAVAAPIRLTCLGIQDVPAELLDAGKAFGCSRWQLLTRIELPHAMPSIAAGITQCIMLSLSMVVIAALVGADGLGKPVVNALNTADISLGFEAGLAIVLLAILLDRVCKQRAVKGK
T1 sequence (Q9HTI8 1-392 partner): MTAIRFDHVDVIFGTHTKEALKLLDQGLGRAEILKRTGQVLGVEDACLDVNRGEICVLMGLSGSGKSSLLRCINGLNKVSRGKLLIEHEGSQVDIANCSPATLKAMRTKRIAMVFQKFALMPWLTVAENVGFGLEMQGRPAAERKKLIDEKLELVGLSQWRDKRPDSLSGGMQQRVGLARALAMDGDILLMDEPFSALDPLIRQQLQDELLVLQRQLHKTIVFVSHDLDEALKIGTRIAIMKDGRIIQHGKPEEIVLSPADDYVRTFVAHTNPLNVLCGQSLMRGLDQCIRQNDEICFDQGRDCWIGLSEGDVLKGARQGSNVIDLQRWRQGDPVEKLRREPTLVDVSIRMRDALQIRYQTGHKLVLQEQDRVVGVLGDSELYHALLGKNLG

CbcWV-CaiX = CbcWV-CaiX (Pseudomonas aeruginosa, UniProt Q9HTH6); assay: Uptake kinetics, PA5378::tn; conditions: pNcbcWV, SBP CaiXPAO1, mean (SE), n = 4
CbcWV-CaiX, sequence (Q9HTH6 23-312, one chain of several): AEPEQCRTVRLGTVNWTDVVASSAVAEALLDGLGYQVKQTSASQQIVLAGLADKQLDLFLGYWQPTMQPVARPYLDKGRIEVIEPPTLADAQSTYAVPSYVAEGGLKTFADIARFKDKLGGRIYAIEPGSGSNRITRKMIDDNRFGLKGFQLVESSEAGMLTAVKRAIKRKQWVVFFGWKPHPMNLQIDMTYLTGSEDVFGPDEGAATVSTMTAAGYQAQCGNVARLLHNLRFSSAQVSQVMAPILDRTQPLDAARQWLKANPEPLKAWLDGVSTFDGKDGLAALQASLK

Compound | maximal rate of uptake (Vmax) (BetX with CbcWV) | maximal rate of uptake (Vmax) (BetX with CbcWV; listed as betaine) | maximal rate of uptake (Vmax) (CbcWV-CaiX)
C[N+](C)(C)CC(=O)O [Betaine, glycine betaine] | 4.8 (0.18) nmol min^−1 (mg protein)^−1 | 4.8 nmol min^−1 (mg protein)^−1 | 
C[N+](C)(C)C[C@H](O)CC(=O)[O-] [Carnitine, L-carnitine] |  |  | 3.8 (0.33) nmol min^−1 (mg protein)^−1
